{"source": "patent US6677466B1", "about": "“Method for stabilizing hydrogen peroxide” (DSM Fine Chemicals Austria NFG GmbH & Co KG, priority 1999, dated 2004)", "test": "O2 evolution from [Mn2O3{Me3tacn}2](PF6)2-catalysed decomposition of H2O2 with stabilizer", "assay_type": "physicochemical", "method": "A 50% strength aqueous solution of H2O2 (304 mg; 4.46 mmol) was added to 454 mg (4.46 mmol) of methyl pyruvate and to 535 mg (4.46 mmol) of glyoxylic methyl ester methyl hemiacetal, respectively. In the case of methyl pyruvate, a marked evolution of heat was discovered during the addition. After one hour, the H2O2/α-keto ester mixture was mixed with 1 ml of solvent and added to a suspension of 1.0 mg of [Mn2O3{Me3tacn}2](PF6)2 catalyst in 4 ml of solvent. The suspension was introduced into a 50 ml flask which was maintained at room temperature in a water bath. As a result of this addition, in cases where undissolved catalyst was still present, the catalyst dissolved completely.\nAs a comparison, a suspension of 1.0 mg of [Mn2O3{Me3tacn}2](PF6)2 catalyst in 4 ml of solvent was combined with a 50% strength aqueous solution of H2O2 (304 mg; 4.46 mmol) and 1 ml of solvent without stabilizer.\nThe amount of oxygen which was evolved from the decomposition of the hydrogen peroxide was determined as a function of time using a Brooks meter, which permitted measurement of the gas flow and the total amount of evolved gas.", "data": [{"smiles": "COC(=O)C(O)OC", "note": "(stereo not drawn) [GMHA, glyoxylic methyl ester methyl hemiacetal]", "values": [{"measurement": "O2 evolution V(O2) (Vmax(O2)*100%)", "setting": "solv. acetic acid, t 5 min", "value": 0, "unit": "%"}, {"measurement": "O2 evolution V(O2) (Vmax(O2)*100%)", "setting": "solv. acetic acid, t 10 min", "value": 2, "unit": "%"}, {"measurement": "O2 evolution V(O2) (Vmax(O2)*100%)", "setting": "solv. acetic acid, t 15 min", "value": 3, "unit": "%"}, {"measurement": "O2 evolution V(O2) (Vmax(O2)*100%)", "setting": "solv. acetic acid, t 20 min", "value": 3, "unit": "%"}, {"measurement": "O2 evolution V(O2) (Vmax(O2)*100%)", "setting": "solv. acetic acid, t 25 min", "value": 3, "unit": "%"}, {"measurement": "O2 evolution V(O2) (Vmax(O2)*100%)", "setting": "solv. acetic acid, t 30 min", "value": 3, "unit": "%"}, {"measurement": "O2 evolution V(O2) (Vmax(O2)*100%)", "setting": "solv. acetic acid, t 35 min", "value": 3, "unit": "%"}, {"measurement": "O2 evolution V(O2) (Vmax(O2)*100%)", "setting": "solv. acetic acid, t 40 min", "value": 3, "unit": "%"}, {"measurement": "O2 evolution V(O2) (Vmax(O2)*100%)", "setting": "solv. acetic acid, t 50 min", "value": 3, "unit": "%"}, {"measurement": "O2 evolution V(O2) (Vmax(O2)*100%)", "setting": "solv. acetic acid, t 60 min", "value": 3, "unit": "%"}, {"measurement": "O2 evolution V(O2) (Vmax(O2)*100%)", "setting": "solv. acetic acid, t 70 min", "value": 3, "unit": "%"}, {"measurement": "O2 evolution V(O2) (Vmax(O2)*100%)", "setting": "solv. acetic acid, t 80 min", "value": 3, "unit": "%"}, {"measurement": "O2 evolution V(O2) (Vmax(O2)*100%)", "setting": "solv. acetone, t 5 min", "value": 0, "unit": "%"}, {"measurement": "O2 evolution V(O2) (Vmax(O2)*100%)", "setting": "solv. acetone, t 10 min", "value": 0, "unit": "%"}, {"measurement": "O2 evolution V(O2) (Vmax(O2)*100%)", "setting": "solv. acetone, t 15 min", "value": 0, "unit": "%"}, {"measurement": "O2 evolution V(O2) (Vmax(O2)*100%)", "setting": "solv. acetone, t 20 min", "value": 0, "unit": "%"}, {"measurement": "O2 evolution V(O2) (Vmax(O2)*100%)", "setting": "solv. acetone, t 25 min", "value": 0, "unit": "%"}, {"measurement": "O2 evolution V(O2) (Vmax(O2)*100%)", "setting": "solv. acetone, t 30 min", "value": 0, "unit": "%"}, {"measurement": "O2 evolution V(O2) (Vmax(O2)*100%)", "setting": "solv. acetone, t 35 min", "value": 0, "unit": "%"}, {"measurement": "O2 evolution V(O2) (Vmax(O2)*100%)", "setting": "solv. acetone, t 40 min", "value": 0, "unit": "%"}, {"measurement": "O2 evolution V(O2) (Vmax(O2)*100%)", "setting": "solv. acetone, t 50 min", "value": 0, "unit": "%"}, {"measurement": "O2 evolution V(O2) (Vmax(O2)*100%)", "setting": "solv. acetone, t 60 min", "value": 9, "unit": "%"}, {"measurement": "O2 evolution V(O2) (Vmax(O2)*100%)", "setting": "solv. acetone, t 70 min", "value": 12, "unit": "%"}, {"measurement": "O2 evolution V(O2) (Vmax(O2)*100%)", "setting": "solv. acetone, t 80 min", "value": 12, "unit": "%"}, {"measurement": "O2 evolution V(O2) (Vmax(O2)*100%)", "setting": "solv. acetonitrile, t 5 min", "value": 0, "unit": "%"}, {"measurement": "O2 evolution V(O2) (Vmax(O2)*100%)", "setting": "solv. acetonitrile, t 10 min", "value": 0, "unit": "%"}, {"measurement": "O2 evolution V(O2) (Vmax(O2)*100%)", "setting": "solv. acetonitrile, t 15 min", "value": 0, "unit": "%"}, {"measurement": "O2 evolution V(O2) (Vmax(O2)*100%)", "setting": "solv. acetonitrile, t 20 min", "value": 0, "unit": "%"}, {"measurement": "O2 evolution V(O2) (Vmax(O2)*100%)", "setting": "solv. acetonitrile, t 25 min", "value": 0, "unit": "%"}, {"measurement": "O2 evolution V(O2) (Vmax(O2)*100%)", "setting": "solv. acetonitrile, t 30 min", "value": 0, "unit": "%"}, {"measurement": "O2 evolution V(O2) (Vmax(O2)*100%)", "setting": "solv. acetonitrile, t 35 min", "value": 0, "unit": "%"}, {"measurement": "O2 evolution V(O2) (Vmax(O2)*100%)", "setting": "solv. acetonitrile, t 40 min", "value": 0, "unit": "%"}, {"measurement": "O2 evolution V(O2) (Vmax(O2)*100%)", "setting": "solv. acetonitrile, t 50 min", "value": 0, "unit": "%"}, {"measurement": "O2 evolution V(O2) (Vmax(O2)*100%)", "setting": "solv. acetonitrile, t 60 min", "value": 0, "unit": "%"}, {"measurement": "O2 evolution V(O2) (Vmax(O2)*100%)", "setting": "solv. acetonitrile, t 70 min", "value": 0, "unit": "%"}, {"measurement": "O2 evolution V(O2) (Vmax(O2)*100%)", "setting": "solv. acetonitrile, t 80 min", "value": 0, "unit": "%"}, {"measurement": "O2 evolution V(O2) (Vmax(O2)*100%)", "setting": "solv. ethyl acetate, t 5 min", "value": 0, "unit": "%"}, {"measurement": "O2 evolution V(O2) (Vmax(O2)*100%)", "setting": "solv. ethyl acetate, t 10 min", "value": 4, "unit": "%"}, {"measurement": "O2 evolution V(O2) (Vmax(O2)*100%)", "setting": "solv. ethyl acetate, t 15 min", "value": 8, "unit": "%"}, {"measurement": "O2 evolution V(O2) (Vmax(O2)*100%)", "setting": "solv. ethyl acetate, t 20 min", "value": 9, "unit": "%"}, {"measurement": "O2 evolution V(O2) (Vmax(O2)*100%)", "setting": "solv. ethyl acetate, t 25 min", "value": 9, "unit": "%"}, {"measurement": "O2 evolution V(O2) (Vmax(O2)*100%)", "setting": "solv. ethyl acetate, t 30 min", "value": 9, "unit": "%"}, {"measurement": "O2 evolution V(O2) (Vmax(O2)*100%)", "setting": "solv. ethyl acetate, t 35 min", "value": 9, "unit": "%"}, {"measurement": "O2 evolution V(O2) (Vmax(O2)*100%)", "setting": "solv. ethyl acetate, t 40 min", "value": 9, "unit": "%"}, {"measurement": "O2 evolution V(O2) (Vmax(O2)*100%)", "setting": "solv. ethyl acetate, t 50 min", "value": 9, "unit": "%"}, {"measurement": "O2 evolution V(O2) (Vmax(O2)*100%)", "setting": "solv. ethyl acetate, t 60 min", "value": 9, "unit": "%"}, {"measurement": "O2 evolution V(O2) (Vmax(O2)*100%)", "setting": "solv. ethyl acetate, t 70 min", "value": 9, "unit": "%"}, {"measurement": "O2 evolution V(O2) (Vmax(O2)*100%)", "setting": "solv. ethyl acetate, t 80 min", "value": 9, "unit": "%"}, {"measurement": "O2 evolution V(O2) (Vmax(O2)*100%)", "setting": "solv. methanol, t 5 min", "value": 1, "unit": "%"}, {"measurement": "O2 evolution V(O2) (Vmax(O2)*100%)", "setting": "solv. methanol, t 10 min", "value": 1, "unit": "%"}, {"measurement": "O2 evolution V(O2) (Vmax(O2)*100%)", "setting": "solv. methanol, t 15 min", "value": 1, "unit": "%"}, {"measurement": "O2 evolution V(O2) (Vmax(O2)*100%)", "setting": "solv. methanol, t 20 min", "value": 1, "unit": "%"}, {"measurement": "O2 evolution V(O2) (Vmax(O2)*100%)", "setting": "solv. methanol, t 25 min", "value": 1, "unit": "%"}, {"measurement": "O2 evolution V(O2) (Vmax(O2)*100%)", "setting": "solv. methanol, t 30 min", "value": 1, "unit": "%"}, {"measurement": "O2 evolution V(O2) (Vmax(O2)*100%)", "setting": "solv. methanol, t 35 min", "value": 1, "unit": "%"}, {"measurement": "O2 evolution V(O2) (Vmax(O2)*100%)", "setting": "solv. methanol, t 40 min", "value": 1, "unit": "%"}, {"measurement": "O2 evolution V(O2) (Vmax(O2)*100%)", "setting": "solv. methanol, t 50 min", "value": 1, "unit": "%"}, {"measurement": "O2 evolution V(O2) (Vmax(O2)*100%)", "setting": "solv. methanol, t 60 min", "value": 1, "unit": "%"}, {"measurement": "O2 evolution V(O2) (Vmax(O2)*100%)", "setting": "solv. methanol, t 70 min", "value": 1, "unit": "%"}, {"measurement": "O2 evolution V(O2) (Vmax(O2)*100%)", "setting": "solv. methanol, t 80 min", "value": 1, "unit": "%"}, {"measurement": "O2 evolution V(O2) (Vmax(O2)*100%)", "setting": "solv. t-butanol, t 5 min", "value": 0, "unit": "%"}, {"measurement": "O2 evolution V(O2) (Vmax(O2)*100%)", "setting": "solv. t-butanol, t 10 min", "value": 0, "unit": "%"}, {"measurement": "O2 evolution V(O2) (Vmax(O2)*100%)", "setting": "solv. t-butanol, t 15 min", "value": 0, "unit": "%"}, {"measurement": "O2 evolution V(O2) (Vmax(O2)*100%)", "setting": "solv. t-butanol, t 20 min", "value": 0, "unit": "%"}, {"measurement": "O2 evolution V(O2) (Vmax(O2)*100%)", "setting": "solv. t-butanol, t 25 min", "value": 0, "unit": "%"}, {"measurement": "O2 evolution V(O2) (Vmax(O2)*100%)", "setting": "solv. t-butanol, t 30 min", "value": 0, "unit": "%"}, {"measurement": "O2 evolution V(O2) (Vmax(O2)*100%)", "setting": "solv. t-butanol, t 35 min", "value": 0, "unit": "%"}, {"measurement": "O2 evolution V(O2) (Vmax(O2)*100%)", "setting": "solv. t-butanol, t 40 min", "value": 0, "unit": "%"}, {"measurement": "O2 evolution V(O2) (Vmax(O2)*100%)", "setting": "solv. t-butanol, t 50 min", "value": 0, "unit": "%"}, {"measurement": "O2 evolution V(O2) (Vmax(O2)*100%)", "setting": "solv. t-butanol, t 60 min", "value": 0, "unit": "%"}, {"measurement": "O2 evolution V(O2) (Vmax(O2)*100%)", "setting": "solv. t-butanol, t 70 min", "value": 0, "unit": "%"}, {"measurement": "O2 evolution V(O2) (Vmax(O2)*100%)", "setting": "solv. t-butanol, t 80 min", "value": 0, "unit": "%"}]}]}
